From patent US20160175379A1, “COMBINATION THERAPY FOR THE TREATMENT OF ISCHEMIA-REPERFUSION INJURY” (STEALTH BIO THERAPEUTICS CORP, priority 2013, published 2016)

Legend:
[1] = system: acute myocardial infarction injury; assay: Acute myocardial infarction injury (ischemia/reperfusion) in a rabbit model; format: in vivo, New Zealand white rabbits; details: 30 min ischemia, 3 h reperfusion, IV infusion, compared to the control (vehicle alone) group
Protocol: The effects of a combination of aromatic-cationic peptides and a cardiovascular agent in protecting against an acute myocardial infarction injury in a rabbit model are investigated.
New Zealand white rabbits are used in this study. The rabbits are males and >10 weeks in age. Environmental controls in the animal rooms are set to maintain temperatures of 61° to 72° F. and relative humidity between 30% and 70%. Room temperature and humidity are recorded hourly, and monitored daily. There are approximately 10-15 air exchanges per hour in the animal rooms. Photoperiod is 12-hr light/12-hr dark (via fluorescent lighting) with exceptions as necessary to accommodate dosing and data collection. Routine daily observations are performed. Harlan Teklad, Certified Diet (2030C), rabbit diet is provided approximately 180 grams per day from arrival to the facility. […]
In all cases, treatments are started approximately 10 min after the onset of a 30 min ischemic insult (coronary occlusion) and continued for up to 3 h following reperfusion. In all cases, cardiovascular function is monitored both prior to and during ischemia, as well as for up to 180 min (3 h) post-reperfusion. The experiments are terminated 3 h post-reperfusion (end of study); irreversible myocardial injury (infarct size by histomorphometery) at this time-point is evaluated, and is the primary-end-point of the study. […]

[2] = system: cardiac ischemia-reperfusion injury; assay: Large animal model of acute myocardial infarction injury (cardiac ischemia-reperfusion); format: in vivo, sheep or pig; details: peptide given prior to ischemia
Protocol: The effects of aromatic-cationic peptides and cardiovascular agent in protecting against cardiac ischemia-reperfusion injury in a large animal model (e.g., a porcine or ovine model) are investigated.
The animals are sedated with intramuscular ketamine (50 mg/kg), glycopyrrolate (0.2 mg/kg), and buprenorphine (0.05 mg/kg). After intubation, animals are ventilated with a mechanical respirator (Hallowell EMC Model AWS; Hallowell, Pittsfield, Mass.) using room air enriched with 0.6 L/min oxygen. Catheters are introduced into a small auricular artery and vein, and into the right jugular vein for the continuous measurement of blood pressure and the administration of intravenous medications. […] Heart rate, blood pressure, surface electrocardiogram, and rectal temperature are continuously monitored (Hewlett Packard 78534C; Palo Alto, Calif.). […]
Animals undergo a left thoracotomy, and silicone vascular loops (Quest Medical, Allen, Tex.) are placed around the left anterior descending artery and its second diagonal branch, which is 40% of the distance from the apex to the base of the heart. […] Arterial blood pressure, heart rate, surface electrocardiograms (ECG), and rectal temperature are continuously monitored (Hewlett Packard 78534C; Palo Alto, Calif.) throughout the protocol in all animals. […]

In the case of D-Arg-2′6′-Dmt-Lys-Phe-NH2 [peptide], the “infarct size and apoptotic cell death” value [1] is reported as “significantly reduced” and the “redox ratio (RR) during ischemia” value [2] is reported as “blunted drop in the RR during ischemia”.
